Reference: patent publication US20080261918A1, “Silicon Compounds and Their Use” (priority 2003, published 2008)

Molecular target: T1, human GnRH receptors (Homo sapiens, UniProt P30968)
T1 construct: expressed in transfected cells; host or cells: CHO-K1
T1 sequence (P30968 1-328): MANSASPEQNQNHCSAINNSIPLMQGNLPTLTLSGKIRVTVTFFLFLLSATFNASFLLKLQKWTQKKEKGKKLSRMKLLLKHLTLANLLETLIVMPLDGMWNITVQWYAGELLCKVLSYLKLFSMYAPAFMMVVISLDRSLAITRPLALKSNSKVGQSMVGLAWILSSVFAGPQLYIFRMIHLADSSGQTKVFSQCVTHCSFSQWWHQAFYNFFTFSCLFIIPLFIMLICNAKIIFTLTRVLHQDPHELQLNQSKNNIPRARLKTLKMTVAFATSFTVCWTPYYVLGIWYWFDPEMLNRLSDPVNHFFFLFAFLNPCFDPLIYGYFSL
Assay: Human GnRH receptor functional assay (intracellular calcium release)
Type: cell-based
Details: CHO-K1 cells expressing human GnRH receptors; block of GnRH (EC80)-induced calcium release; 20 min preincubation
Protocol: Human GnRH Receptor Functional Assay
GnRH-receptor antagonists may be functionally assessed by measurement of change in intracellular calcium levels induced by Gαq mediated increase in IP3 levels. The ability of compounds to block the intracellular release of calcium by GnRH in CHO-K1 cells expressing human GnRH receptors is determined as a measure of the compound's antagonist activity in vitro. Approximately 30,000 cells per assay well (half well 96 well assay plate—Corning) are seeded in normal culture medium. Twenty four hours after seeding the cells are loaded with a calcium sensitive fluorescent dye by replacing the culture medium with assay buffer (1×Hanks buffered saline, 25 mM HEPES, 0.1% w/v fatty acid free BSA, pH7.4) containing 2.5 mM probenecid and 1×Calcium Plus reagent (Molecular) Devices. Cells are incubated at 37° C. for 1 hour to allow for dye uptake. […] After incubation with test compounds the assay plate is placed in a Flexstation II (Molecular Devices) and GnRH is added at the determined EC80 concentration (final). Ligand-dependent changes in intracellular calcium levels are determined by measuring changes in fluorescence of the dye at […] following excitation at 485 nm. Percentage inhibition curves are plotted using 4-parameter fit algorithm and IC50 values calculated for each compound.

## COc1nc(N2CCC(N(C)C)C2)nc(OC)c1NC(=O)c1ccc(Oc2cc([Si](C)(C)C)ccc2C)o1 (stereo not shown) [Example 2, N-(2-(3-(dimethylamino)pyrrolidin-1-yl)-4,6-dimethoxypyrimidin-5-yl)-5-(2-methyl-5-(trimethylsilyl)phenoxy)furan-2-carboxamide]
  IC50: 160 nM
